Measurements from patent US5504091A, “Biotin esters of rapamycin” (American Home Products Corporation, priority 1994, dated 1996).
Read-outs that look alike come from different tables or passages of the source.

Columns and labels:
[1] = system: T-cell proliferation (cells from the thymus of normal C3H mice); assay: comitogen-induced thymocyte proliferation procedure (LAF); assay type: cell-based; settings: for inhibition at 0.0001 µM / inhibition at 0.001 µM / inhibition at 0.003 µM / inhibition at 0.01 µM / inhibition at 1 µM / IC50: Mus musculus, T-cell; for inhibition at 0.0001 µM: 0.1 nM (so in the source); for inhibition at 0.001 µM: 1 nM; for inhibition at 0.003 µM: 3 nM; for inhibition at 0.01 µM: 10 nM; for ratio compared to rapamycin: >1 = greater inhibition than rapamycin
Method: Immunosuppressive activity for a representative compound of this invention was evaluated in an in vitro standard pharmacological test procedure to measure the inhibition of lymphocyte proliferation (LAF).
The comitogen-induced thymocyte proliferation procedure (LAF) was used as an in vitro measure of the immunosuppressive effects of representative compounds. Briefly, cells from the thymus of normal C3H mice are cultured for 72 hours with PHA and IL-1 and pulsed with tritiated thymidine during the last six hours. Cells are cultured with and without various concentrations of rapamycin, cyclosporin A, or test compound. Cells are harvested and incorporated radioactivity is determined. Inhibition of lymphoproliferation is assessed as percent change in counts per minute from non-drug treated controls. For each compound evaluated, rapamycin was also evaluated for the purpose of comparison. An IC50 was obtained for each test compound as well as for rapamycin. […] The results are also expressed as a ratio compared to rapamycin. A positive ratio indicates immunosuppressive activity. […] Calculation of the ratio is shown below. [formula]

Streptavidin = assay: BIAcore binding of the compound of Example 3 to streptavidin conjugated matrix; settings: 2.5 mM injected
[2] = Fluorescent Polarization Immunoassay (FPIA), tracer background
Source text: (§1) The hybridoma cell line in P4G1 was cloned by limiting dilution and is designated as hybridoma cell line, RAP-42-OVAF2 #1hc-. The hybridoma cell line, RAP-42-OVAF2 #1hc, was deposited under the terms of the Budapest Treaty with the American Type Culture Collection (ATCC) of 12301 Parklawn Drive, Rockville, Md., 20852, U.S.A., on Mar. 10, 1994, and was granted accession number HB 11568. […] The ring opened rapamycin-specific antibody, designated as RAP-42-OVAF2 #1MoAb, was isolated and purified using conventional methodology.

FKBP12 = assay: Fluorescent Polarization Immunoassay (FPIA), tracer with FKBP12; assay type: binding
Source text: as §1

RAP-42-OVAF2#1MoAb [3] = assay: Fluorescent Polarization Immunoassay (FPIA), tracer with antibody; assay type: binding
Source text: as §1

[4] = system: rapamycin specific antibody; assay: competitive inhibition ELISA, binding of the compound of Example 3 to rapamycin specific antibody (Table 2); settings: for OD: compound of Example 3 0.17 μM, 492 nm
Method: The compound of Example 3 was used as a representative compound of this invention. Microtiter plates (Immulon I) were coated overnight with 100 μl of goat anti-mouse antibody (10 μg/ml in 10 mM potassium phosphate buffer, pH 7.2) at 4° C. The plates were flicked and blocked with 100 μl of 1% bovine sera albumin in phosphate buffered saline overnight at 4° C. After flicking and washing the plates three times with 0.2×PBS containing 0.02% Triton X-100 and 0.004% thimerosal, rapamycin specific antibody (100 μl of 1 μg/ml) was added to each well and incubated at room temperature for 1-4 hour. After flicking and washing the plates three times with 0.2×PBS containing 0.02% Triton X- 100 and 0.004% thimerosal, the compound of Example 3 (100 μl, 0.17 μM) in the presence or absence of various concentrations of rapamycin was added and incubated for 1 hour. After flicking and washing the plates three times with 0.2×PBS containing 0.02% Triton X-100 and 0.004% thimerosal, streptavidin conjugated to horseradish peroxidase (100 μl, 0.2 μg/ml) was incubated at room temperature for 1 hour in the dark. After flicking and washing the plates three times with 0.2×PBS containing 0.02% Triton X-100 and 0.004% thimerosal, OPD substrate was added and the plates were incubated covered for 15 min. at room temperature in the dark. The optical density was read on a spectrophotometer at 492 nm.

[5] = target: glutathione S-transferase-FK506 binding protein (GST-FKBP) (Homo sapiens, UniProt P62942); assay: Rapamycin Competitive Binding Assay using the Compound of Example 3, receptor based (Table 3); settings: compound of Example 3 50 ng/ml, 450 nm
Method: The following is an example of the use of the compounds of this invention in a receptor based assay to measure rapamycin levels using a rapamycin-binding protein and the compound of Example 3 as the ligand. Wells of microtiter plates were coated with 0.5 μg/well of the fusion protein, glutathione S-transferase-FK506 binding protein (GST-FKBP), in 100 μl of 0.02M HEPES buffer, pH 7.4. Plates were incubated overnight at 4° C. Plates were washed 3 × with HEPES buffer. Well surfaces were blocked by the addition of 1% bovine serum albumin fraction V (BSA) in HEPES buffer ([…]). Plates were incubated for 1 hour at ambient temperature. Plates were washed three times. Various concentrations of rapamycin were added to the compound of Example 3 (50 ng/ml) and 100 μl of the solutions were added to wells in triplicate. After incubation of the plates at ambient temperature followed by washing the plates with HEPES buffer, 100 μl of diluted avidin-horseradish peroxidase conjugate was added to each well. After incubation for 1 hour at ambient temperature and washing five times, 100 μl of tetramethylbenzidine substrate was added to each well. The plates were incubated for 30 minutes in the dark at ambient temperature. The reactions were stopped and the optical density was read at 450 nm.

RAP-42-OVAF2#1MoAb [6] = assay: FPIA competition of the binding between the antibody and A3 tracer
Source text: as §1

[7] = system: experimental allergic encephalomyelitis model; settings: model for multiple sclerosis; Martel et al.; cited from earlier work
adjuvant arthritis model = settings: model for rheumatoid arthritis; Martel et al.; cited from earlier work
IgE-like antibodies = settings: Martel et al.; cited from earlier work

glutathione S-transferase-FK506 binding protein (GST-FKBP), sequence (P62942 2-108): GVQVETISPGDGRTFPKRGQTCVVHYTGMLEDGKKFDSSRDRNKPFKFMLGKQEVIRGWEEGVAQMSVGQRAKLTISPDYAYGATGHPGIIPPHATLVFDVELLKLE

Compound `CO[C@H]1C[C@@H]2CC[C@@H](C)[C@@](O)(O2)C(=O)C(=O)N2CCCC[C@H]2C(=O)O[C@H]([C@H](C)C[C@@H]2CC[C@@H](OC(=O)CNC(=O)CCCC[C@@H]3SC[C@@H]4NC(=O)N[C@@H]43)[C@H](OC)C2)CC(=O)[C@H](C)/C=C(\C)[C@@H](O)[C@@H](OC)C(=O)[C@H](C)C[C@H](C)/C=C/C=C/C=C/1C` [Example 3, Rapamycin 42-ester with glycylbiotin] has an inhibition at 0.0001 µM ([1]; first evaluation) of 98%, an inhibition at 0.001 µM ([1]; first evaluation) of 46% and an inhibition at 0.003 µM ([1]; first evaluation) of 65%. It also gave an inhibition at 0.01 µM ([1]; first evaluation) of 95%, an inhibition at 1 µM ([1]; first evaluation) of 99% and an IC50 ([1]; first evaluation, read-out: IC50) of 2.8 nM. The inhibition at 0.0001 µM ([1]; second evaluation) was 94%, the inhibition at 0.001 µM ([1]; second evaluation) was 16% and the inhibition at 0.003 µM ([1]; second evaluation) was 51%. The inhibition at 0.01 µM ([1]; second evaluation) was 88%, the inhibition at 1 µM ([1]; second evaluation) was 96% and the IC50 ([1]; second evaluation, read-out: IC50) was 1.3 nM. For the same compound, the “ratio compared to rapamycin” value ([1]; first evaluation) was 2.39, the “ratio compared to rapamycin” value ([1]; second evaluation) was 0.63 and the resonance units bound (Streptavidin) was 115 resonance units.

`CO[C@H]1C[C@@H]2CC[C@@H](C)[C@@](O)(O2)C(=O)C(=O)N2CCCC[C@H]2C(=O)O[C@H]([C@H](C)C[C@@H]2CC[C@@H](OC(=O)CCC(=O)NCC(=O)Nc3ccc4c(c3)C(=O)OC43c4ccc(O)cc4Oc4cc(O)ccc43)[C@H](OC)C2)CC(=O)[C@H](C)/C=C(\C)[C@@H](O)[C@@H](OC)C(=O)[C@H](C)C[C@H](C)/C=C/C=C/C=C/1C` [rapamycin 42-ester with succinic acid conjugate with 5-glycinylfluoresceinamine] gave a polarization ([2]; tracer alone, 10 nM, 100 mM sodium phosphate pH 7.5) of 77 mP, a polarization (FKBP12; tracer 10 nM, after addition of an excess of FKBP12) of 195 mP and a polarization (RAP-42-OVAF2#1MoAb [3]; tracer 10 nM, excess of RAP-42-OVAF2#1MoAb) of 84 mP.

In the case of `CO[C@H]1C[C@@H]2CC[C@@H](C)[C@@](O)(O2)C(=O)C(=O)N2CCCC[C@H]2C(=O)O[C@H]([C@H](C)C[C@@H]2CC[C@@H](O)[C@H](OC)C2)CC(=O)[C@H](C)/C=C(\C)[C@@H](O)[C@@H](OC)C(=O)[C@H](C)C[C@H](C)/C=C/C=C/C=C/1C` [rapamycin], the IC50 ([1]; first evaluation) is reported as 6.7 nM, the IC50 ([1]; second evaluation) is reported as 0.8 nM and the “% INHIBITION of binding of the compound of Example 3” value (“% INHIBITION” for short) ([4]; rapamycin 0.005 μM) is reported as 6.6%. The OD ([4]; rapamycin 0.005 μM) was 1.866, the “% INHIBITION” value ([4]; rapamycin 0.05 μM) was 7.8% and the OD ([4]; rapamycin 0.05 μM) was 1.842. For the same compound, the “% INHIBITION” value ([4]; rapamycin 0.5 μM) was 30.1%, the OD ([4]; rapamycin 0.5 μM) was 1.419 and the “% INHIBITION” value ([4]; rapamycin 5 μM) was 67.6%. The OD ([4]; rapamycin 5 μM) was “.705”, the “Optical Density” value ([5]; rapamycin 1.5625 ng/ml) was 2.6160 and the “Optical Density” value ([5]; rapamycin 3.125 ng/ml) was 2.3040. For the same compound, the “Optical Density” value ([5]; rapamycin 6.25 ng/ml) was 2.0557, the “Optical Density” value ([5]; rapamycin 12.5 ng/ml) was 1.3913 and the “Optical Density” value ([5]; rapamycin 25 ng/ml) was 0.7473. For the same compound, the “Optical Density” value ([5]; rapamycin 50 ng/ml) was 0.3573, the “Optical Density” value ([5]; rapamycin 100 ng/ml) was 0.2433 and the “Optical Density” value ([5]; rapamycin 200 ng/ml) was 0.2177. For the same compound, the “polarization, competition of the binding between the antibody and A3 tracer” value (“polarization, competition” below) (RAP-42-OVAF2#1MoAb [6]; after 38 min) was 121 mP, the “polarization, competition” value (RAP-42-OVAF2#1MoAb [6]; at 3 min) was 155 mP and the “effect in experimental allergic encephalomyelitis model” value [7] was “effective”. The “effect in adjuvant arthritis model” value (adjuvant arthritis model) was “effective” and the “inhibition of formation of IgE-like antibodies” value (IgE-like antibodies) was “effectively inhibited”.

For `CO[C@@H](C[C@@H]1CC[C@@H](C)[C@](O)(C(=O)C(=O)N2CCCC[C@H]2C(=O)O)O1)/C(C)=C/C=C/C=C/[C@@H](C)C[C@@H](C)C(=O)[C@H](OC)[C@H](O)/C(C)=C/[C@@H](C)C(=O)/C=C/[C@H](C)C[C@@H]1CC[C@@H](O)[C@H](OC)C1` [secorapamycin], the “polarization, competition” value (RAP-42-OVAF2#1MoAb [6]; after 38 min) was 89 mP and the “polarization, competition” value (RAP-42-OVAF2#1MoAb [6]; at 3 min) was 105 mP.

In the case of “secorapamycin 42-ester with succinic acid conjugate with 5-fluoresceinamine [Example A3]”, the “background reading (polarization)” value ([2]; A3 tracer alone) is reported as 75 mP, the polarization reading (FKBP12; A3 in presence of FKBP12 (background levels)) is reported as 79 mP and the polarization reading (RAP-42-OVAF2#1MoAb [3]; A3 in presence of RAP-42-OVAF2#1MoAb) is reported as 178 mP.
